Reference: patent US6814952B2, “Diagnostic imaging agent useful for selecting a therapy for cancerous bone metastasis” (Nihon Medi-Physics Co., Ltd., priority 2001, dated 2004)

Columns and labels:
osteoclast [1] = assay: Uptake by osteoclast (cellular uptake experiment); type: cell-based, mouse
Excerpt: (§1) Osteoblast was isolated from the parietal bone of a newborn mouse by means of stepwise enzyme digestion according to a method described by Takahashi et al. (Takahashi et al., Endocrinology, 123: 2600-2602 (1988)), and cultured using α-MEM (10% fetal calf serum) for 6 to 8 days for use in the following experiments. Furthermore, osteoclast was obtained by co-culturing osteoblastic cells and bone marrow cells for 6 to 8 days using α-MEM (10% fetal calf serum, 10^−8 M vitamin D3, pH 6.2) on a collagen-coated dish according to a method described by Takahashi et al. (Takahashi et al., Endocrinology, 122: 1373-1382 (1988)). The osteoclast was identified by means of tartaric acid-resistant acidic phosphatase dyeing.
Experiment of uptake by cells: The osteoblast or the co-cultured osteoclast was isolated using 35% Percoll and incubated using α-MEM (10% fetal calf serum) at 37° C. in an atmosphere of 5% CO2 and 95% air for 3 hours. The incubated cells were washed with an incubation buffer of pH 7.4 (10 mM HEPES, 5 mM glucose, 150 mM NaCl, 5 mM KCl, 1.8 mM MgSO4, 1 mM CaCl2) three times, and pre-incubated using the same buffer at 37° C. for 30 minutes. Then, the cells in incubation buffer containing ^99mTc(V)-DMS at a concentration of 129.5 kBq/mL were allowed to infiltrate, and washed with the ice-cooled incubation buffer three times, 5, 10, 30 and 60 minutes later. Then, the cells were lysed with 0.2N NaOH, and radioactivity taken up by the cells was measured using a gamma counter. After completion of the radioactivity measurement, the amount of proteins contained in the cell lysate was measured using BCA Protein Assay Kit (produced by Pierce), and the ^99mTc-DMS uptake per unit protein mass (% dose/mg protein) was obtained. As to ^99mTc-HMDP, a similar experiment was carried out for comparison.
In the method described in Example 2, the pH of the incubation buffer was set at 6.2, 6.6, 7.0, 7.4, 7.8 or 8.2, and the incubation time for ^99mTc(V)-DMS uptake was set at 10 minutes, to examine the effect of pH on the uptake of ^99mTc(V)-DMS by osteoclast and osteoblast. […]

osteoclast [2] = assay: Autoradiography of rat knee joint compared with osteoclast/osteoblast marker staining; type: in vivo, Wistar male rat; conditions: inferred from ^186Re(V)-DMS autoradiography in rat knee joint
Protocol: ^99mTc is unsuitable for autoradiography since it has a half life of 6 hours and is a gamma ray-emitting nuclide. Considering this, a radioisotope of Re that is a homologous element of Tc was used to evaluate the in vivo accumulation of ^99mTc(V)-DMS in osteoclast.
^186Re(V)-DMS prepared according to a method described by Horiuchi et al. (Nucl. Med. Biol. 26: 771-779 (1999)) was administered in an amount of 370 kBq to a Wistar male rat, and the rat was sacrificed 3 hours later. Knee joints were extracted, and 30 μm thick specimens were prepared and autoradiographed. Furthermore, from the same regions, 20 μm thick specimens were prepared and the tartaric acid-resistant acidic phosphatase as an osteoclast marker or the alkaline phosphatase as an osteoblast marker was detected by means of staining. The results of the autoradiography and staining were compared to evaluate the accumulation of ^99mTc(V)-DMS in osteoclast.

[3] = tested on: Na^+-dependent phosphate transporter; assay: Participation of sodium ion-dependent phosphate transporter in uptake by osteoclast (phosphate anion, PFA, Na+, pH and cation effects); type: cell-based, mouse; conditions: varied [Pi], PFA 1 or 5 mM, cations, compared with K2H^32PO4, FIGS. 6 through 10
Protocol: In the method described in Example 2, an incubation buffer of pH 7.4 was used for pre-incubation, and the buffer containing ^99mTc(V)-DMS was an incubation buffer of pH 7.4 with the phosphate anion concentration ([Pi]) adjusted to 0 mM, 0.05 mM, 0.1 mM, 0.5 mM, 1.0 mM or 5.0 mM, while the incubation time was set at 5 minutes, to measure the uptake of ^99mTc(V)-DMS by osteoclast.
Furthermore, a similar experiment was carried out except that the buffer containing ^99mTc(V)-DMS was an incubation buffer of pH 7.4 containing 1 mM or 5 mM of phosphonoformic acid (PFA) which was a sodium ion-dependent phosphate transporter inhibitor.
Moreover, a similar experiment was carried out except that the buffer containing ^99mTc(V)-DMS was an incubation buffer of pH 7.4 with the sodium ion concentration ([Na^+]) adjusted in a range from 0.1 mM to 150 mM, and the incubation time for ^99mTc(V)-DMS uptake was set at 30 seconds, to measure the uptake of ^99mTc(V)-DMS into osteoclast.
In the method described in Example 2, the pH of the incubation buffer was set at 6.2, 6.6, 7.0, 7.4, 7.8 or 8.2, and the incubation time for ^99mTc(V)-DMS uptake was set at 30 seconds, to examine effct of pH on the uptake of ^99mTc(V)-DMS into osteoclast. A similar experiment was carried out for K2H^32PO4, to compare the behaviors of ^99mTc(V)-DMS and K2H^32PO4. […]

osteoblast = assay: Uptake by osteoblast (cellular uptake experiment); type: cell-based, mouse
Excerpt: as §1
Experiment of uptake by cells: The osteoblast or the co-cultured osteoclast was isolated using 35% Percoll and incubated using α-MEM (10% fetal calf serum) at 37° C. in an atmosphere of 5% CO2 and 95% air for 3 hours. […] Then, the cells were lysed with 0.2N NaOH, and radioactivity taken up by the cells was measured using a gamma counter. After completion of the radioactivity measurement, the amount of proteins contained in the cell lysate was measured using BCA Protein Assay Kit (produced by Pierce), and the ^99mTc-DMS uptake per unit protein mass (% dose/mg protein) was obtained. […]

^99mTc(V)-dimercaptosuccinic acid [^99mTc(V)-DMS]
effect of pH on the cellular uptake by osteoclast (osteoclast [1]; pH 6.2 to 8.2, incubation time 10 minutes, FIG. 4): remarkably increases as the pH value decreases | effect of incubation modality (extracellular pH) on the cellular uptake by osteoclast (osteoclast [1]; pH of buffers for both pre-incubation and uptake 6.2, versus 7.4/6.2 and 7.4/7.4, 10 minutes, FIG. 5): the uptake of ^99mTc(V)-DMS rises | cellular uptake by osteoclast (uptake per unit protein mass) (osteoclast [1]; time course 5, 10, 30 and 60 minutes, incubation buffer pH 7.4, 37° C., FIG. 2): taken up by osteoclastic cells in an especially large amount | accumulation in osteoclast in vivo, inferred from ^186Re(V)-DMS surrogate (osteoclast [2]): accumulation of ^99mTc(V)-DMS in osteoclast is specific | route of uptake by osteoclast [3]: taken up by osteoclast through the Na^+-dependent phosphate transporter | effect of pH on the cellular uptake by osteoblast (osteoblast; pH 6.2 to 8.2, incubation time 10 minutes, FIG. 3): does not show any significant difference | cellular uptake by osteoblast (uptake per unit protein mass) (osteoblast; time course 5, 10, 30 and 60 minutes, incubation buffer pH 7.4, 37° C., FIG. 1): taken up by osteoblastic cells in an amount smaller than ^99mTc-HMDP
